Reference: PubChem BioAssay AID624410 (The Scripps Research Institute Molecular Screening Center, 2012)
Calls of active or inactive are those of the source. How the calls were made is not given here.

Molecular target: Orexin/Hypocretin receptor type 1 (Homo sapiens) (UniProt O43613)
Experiment: OX1R antagonist potency, HTRF readout, late-stage follow-up, OX1R antagonist probe project, cell-based (AID 624410)
Details: OX1R-expressing cells, HTRF antagonist assay

Sequence of Orexin/Hypocretin receptor type 1 (Homo sapiens) (O43613 whole entry, looked up): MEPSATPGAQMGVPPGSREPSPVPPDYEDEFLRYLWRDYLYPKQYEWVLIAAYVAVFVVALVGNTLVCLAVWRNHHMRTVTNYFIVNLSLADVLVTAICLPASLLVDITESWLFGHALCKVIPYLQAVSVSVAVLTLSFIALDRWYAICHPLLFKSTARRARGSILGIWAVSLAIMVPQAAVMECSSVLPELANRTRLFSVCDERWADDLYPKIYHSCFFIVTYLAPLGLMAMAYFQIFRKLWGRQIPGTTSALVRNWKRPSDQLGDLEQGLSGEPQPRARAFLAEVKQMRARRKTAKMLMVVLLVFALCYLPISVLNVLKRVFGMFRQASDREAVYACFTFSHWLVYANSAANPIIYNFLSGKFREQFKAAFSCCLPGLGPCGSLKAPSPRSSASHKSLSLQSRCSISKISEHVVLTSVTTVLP

SMILES	IC50
O=C(CSc1ccc(-c2ccccc2)nn1)c1cccs1	1960 nM
CSc1cccc(N2CC(C(=O)NCCN3C(=O)S/C(=C\c4cccnc4)C3=O)CC2=O)c1 (stereo not given)	1900 nM
Cc1cccc(NC(=O)[C@@H]2CCCN2S(=O)(=O)c2ccc(Cl)cc2)c1	2030 nM
CCOC(=O)N1CCN(C(=O)CSc2ccc(-c3ccccc3)nn2)CC1	inactive
Cc1ccccc1NC(=O)C1CCCN1S(=O)(=O)c1ccccc1C(F)(F)F (stereo not given)	3740 nM
Cc1noc(C)c1COc1ccc(C(=O)OCC(=O)N2CC(=O)Nc3ccccc32)cc1	inactive
O=c1cc(CN2CC(O)Cc3ccc4ccccc4c32)nc2sccn12 (stereo not given)	inactive
Cc1ccc(-c2csc3nnc(SCC(=O)Nc4nsc(-c5ccccc5)n4)n23)cc1	3060 nM
Cc1cccc(C=NNC(=O)c2cc3c(s2)-c2ccccc2CC3)c1	2820 nM
COCCCNC(=O)CCC(=O)NNc1nc2ccccc2c2nc(-c3ccccc3)nn12	6540 nM
Fc1cccc(Nc2nc3ccccc3n3cnnc23)c1	3340 nM
COc1ccc(OC)c(S(=O)(=O)NCC(c2ccco2)N2CCc3ccccc32)c1 (stereo not given)	2710 nM
CCc1cc(C(=O)OCC(=O)N2CCC(c3ccccc3)=N2)sc1C	2190 nM
CC(=C/c1ccccc1)/C=C1/SC(N2CCOCC2)=NC1=O	3020 nM
COc1cc(OC)c(-c2nc3ccccc3s2)cc1OC	1900 nM

More lines, in order of falling IC50, values ahead:

IC50	SMILES
1610 nM	CCc1cc2c(SCC(=O)N(CC)c3c(N)n(Cc4ccccc4)c(=O)[nH]c3=O)ncnc2s1
844 nM	CCn1c(SCC(=O)Nc2ccc3c(c2)c2ccccc2n3CC)nnc1-c1cnccn1
769 nM	CCOc1ccccc1C(=O)Nc1ccc2nc3n(c(=O)c2c1)CCCCC3
750 nM	Cc1c(NS(=O)(=O)c2cccc(C(=O)OCC(=O)N(C)C3CCCCC3)c2)c(=O)n(-c2ccccc2)n1C
655 nM	CCN(CC)c1ccc(NC(=O)Cn2c(C(C)NC(=O)c3ccccc3)nc3ccccc32)cc1 (stereo not given)
611 nM	CCSC1=C(C#N)C(c2ccccc2Cl)C(C(=O)c2cccs2)C(O)(C(F)(F)F)N1 (stereo not given)
468 nM	COc1cccc(/C=C2/Oc3ccccc3N(CC(=O)NCC3CCCO3)C2=O)c1 (stereo not given)
437 nM	Cc1cc(Cl)ccc1OCCCC(=O)NCCN1C(=O)S/C(=C\c2cccnc2)C1=O
386 nM	CSc1cccc(NC(=O)C2CCCN2S(=O)(=O)c2ccc(Br)s2)c1 (stereo not given)
277 nM	O=C(CN1C(=O)/C(=C\c2cccc(Br)c2)Oc2ccccc21)NCC1CCCO1 (stereo not given)
